# From EPA's ToxRefDB 2
# Legend:
# rat [1] = details: Prenatal developmental toxicity study, sprague dawley, Oral, Gavage/Intubation, dose end: 17 GD, group: maternal
# dog [2] = details: Sub-acute repeat dose toxicity, beagle, Oral, Gavage/Intubation, dose end: 1 month, group: systemic
# rabbit [3] = details: Prenatal developmental toxicity study; new zealand white; Oral; Gavage/Intubation; dose end: 19 GD; group: maternal; reproductive / reproductive performance / resorptions / resorptions + systemic / in life observation / body weight / body weight gain + …
# rat [4] = details: Prenatal developmental toxicity study, sprague dawley, Oral, Gavage/Intubation, dose end: 17 GD
# rat [5] = details: Fertility (Segment I), sprague dawley, Oral, Gavage/Intubation, dose end: 7 GD
# rat [6] = details: Chronic toxicity, sprague dawley, Oral, Gavage/Intubation, dose end: 6 month, group: systemic
# dog [7] = details: Chronic toxicity, beagle, Oral, Gavage/Intubation, dose end: 6 month, group: systemic
# rat [8] = details: Prenatal developmental toxicity study, sprague dawley, Oral, Gavage/Intubation, dose end: 17 GD; remark: listed apart in the source
# rat [9] = details: Fertility (Segment I), sprague dawley, Oral, Gavage/Intubation, dose end: 7 GD; remark: listed apart in the source
# rabbit [10] = details: Prenatal developmental toxicity study; new zealand white; Oral; Gavage/Intubation; dose end: 19 GD; group: maternal; reproductive / reproductive performance / postimplantation loss / postimplantation loss + reproductive / reproductive performance / …
# rat [11] = details: Sub-acute repeat dose toxicity, sprague dawley, Oral, Gavage/Intubation, dose end: 1 month, group: systemic
# [12] = systemic / in life observation / body weight / body weight gain + systemic / in life observation / food consumption / food consumption
# [13] = systemic / in life observation / body weight / body weight gain + systemic / in life observation / food consumption / food consumption + …
# [14] = systemic / clinical chemistry / alanine aminotransferase (alt/sgpt) / alanine aminotransferase (alt/sgpt) + systemic / clinical chemistry / …
# [15] = systemic / hematology / erythrocyte (rbc) count differential / erythrocyte (rbc) + systemic / hematology / hematocrit (hct) / hematocrit (…
# [16] = group: developmental, systemic / in life observation / body weight / fetal weight
# [17] = group: maternal, reproductive / reproductive performance / aborted / aborted + reproductive / reproductive performance / gestation index / gestation index + …
# [18] = group: maternal, reproductive / reproductive performance / estrous cycle / corpora lutea + reproductive / reproductive performance / implantations / …
# [19] = group: parental, systemic / in life observation / body weight / body weight gain + systemic / in life observation / food consumption / food consumption
# [20] = systemic / pathology gross / uterus / dilatation
# [21] = systemic / pathology microscopic / parathyroid gland / adenoma + systemic / clinical chemistry / alanine aminotransferase (alt/sgpt) / …
# [22] = systemic / in life observation / body weight / body weight + systemic / organ weight / thymus / absolute + systemic / organ weight / thymus…
# [23] = group: maternal, reproductive / reproductive performance / aborted / aborted + reproductive / reproductive performance / postimplantation loss / …
# [24] = group: maternal, reproductive / reproductive performance / estrous cycle / abnormal + reproductive / reproductive performance / estrous cycle / corpora lutea…
# [25] = group: parental, systemic / in life observation / body weight / body weight + systemic / in life observation / body weight / body weight gain + systemic / in…
structure (smiles),measurement,setting,value
CN(C)C(=O)NC1(c2ccccc2)CCN(CCC[C@]2(c3ccc(Cl)c(Cl)c3)CCCN(C(=O)c3ccccc3)C2)CC1,LEL,rat [1]; [12],100 mg/kg/day
same,LOAEL,rat [1]; [12],100 mg/kg/day
same,NEL,rat [1]; [13],50 mg/kg/day
same,NOAEL,rat [1]; [13],50 mg/kg/day
same,LOAEL,dog [2]; [14],> 360 mg/kg/day
same,NOAEL,dog [2]; [14],≥ 360 mg/kg/day
same,LEL,dog [2]; [15],40 mg/kg/day
same,NEL,dog [2]; [15],< 40 mg/kg/day
same,LEL,rabbit [3],75 mg/kg/day
same,LOAEL,rabbit [3],> 75 mg/kg/day
same,NEL,rabbit [3],25 mg/kg/day
same,NOAEL,rabbit [3],≥ 75 mg/kg/day
same,LEL,rat [4]; [16],200 mg/kg/day
same,LOAEL,rat [4]; [16],> 200 mg/kg/day
same,NEL,rat [4]; [16],75 mg/kg/day
same,NOAEL,rat [4]; [16],≥ 200 mg/kg/day
same,LEL,rat [4]; [17],200 mg/kg/day
same,LOAEL,rat [4]; [17],200 mg/kg/day
same,NEL,rat [4]; [17],75 mg/kg/day
same,NOAEL,rat [4]; [17],75 mg/kg/day
same,LEL,rat [5]; [18],150 mg/kg/day
same,LOAEL,rat [5]; [18],> 150 mg/kg/day
same,NEL,rat [5]; [18],75 mg/kg/day
same,NOAEL,rat [5]; [18],≥ 150 mg/kg/day
same,LEL,rat [5]; [19],150 mg/kg/day
same,LOAEL,rat [5]; [19],> 150 mg/kg/day
same,NEL,rat [5]; [19],75 mg/kg/day
same,NOAEL,rat [5]; [19],≥ 150 mg/kg/day
same,LEL,rat [6]; [20],25 mg/kg/day
same,NEL,rat [6]; [20],< 25 mg/kg/day
same,LOAEL,rat [6]; [21],> 250 mg/kg/day
same,NOAEL,rat [6]; [21],≥ 250 mg/kg/day
same,LOAEL,dog [7]; [14],> 90 mg/kg/day
same,NOAEL,dog [7]; [14],≥ 90 mg/kg/day
same,LEL,dog [7]; [22],10 mg/kg/day
same,NEL,dog [7]; [22],< 10 mg/kg/day
same,LEL,rat [8]; [16],250 mg/kg/day
same,LOAEL,rat [8]; [16],> 250 mg/kg/day
same,NEL,rat [8]; [16],< 250 mg/kg/day
same,NOAEL,rat [8]; [16],≥ 250 mg/kg/day
same,LEL,rat [8]; [23],250 mg/kg/day
same,LOAEL,rat [8]; [23],> 250 mg/kg/day
same,NEL,rat [8]; [23],< 250 mg/kg/day
same,NOAEL,rat [8]; [23],≥ 250 mg/kg/day
same,LOAEL,rat [9]; [24],> 250 mg/kg/day
same,NEL,rat [9]; [24],75 mg/kg/day
same,NOAEL,rat [9]; [24],≥ 250 mg/kg/day
same,LEL,rat [9]; [18],150 mg/kg/day
same,LOAEL,rat [9]; [25],> 250 mg/kg/day
same,NOAEL,rat [9]; [25],≥ 250 mg/kg/day
same,LEL,rat [9]; [19],75 mg/kg/day
same,NEL,rat [9]; [19],< 75 mg/kg/day
same,LEL,rabbit [10],50 mg/kg/day
same,LOAEL,rabbit [10],> 100 mg/kg/day
same,NEL,rabbit [10],< 50 mg/kg/day
same,NOAEL,rabbit [10],≥ 100 mg/kg/day
same,LOAEL,rat [11]; [14],> 250 mg/kg/day
same,NEL,rat [11]; [14],25 mg/kg/day
same,NOAEL,rat [11]; [14],≥ 250 mg/kg/day
same,LEL,rat [11]; systemic / pathology gross / mammary gland / [other],75 mg/kg/day
